Laboratory results: US11180462B2, “Microbiocidal oxadiazole derivatives” (SYNGENTA PARTICIPATIONS AG, priority 2015, dated 2021)

Assays:
[1] = test system: Puccinia recondita f. Sp. Tritici; assay: Fungicidal activity against Puccinia recondita f. sp. tritici / wheat / leaf disc preventative (brown rust); format: in vivo; conditions: foliar, 200 ppm in the applied formulation, wheat leaf segments, preventative, compared to untreated control leaf disks, read-out: disease control
Summary of the method: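 Percent disease control relative to untreated check segments is scored once disease develops, 7 to 9 days after application. Wheat cv. Kanzler segments receive compound spray (200 ppm in formulation) one day before spore inoculation, then sit at 19° C. and 75% rh under 12 h light/12 h dark.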

Phakopsora Pachyrhizi = assay: Fungicidal activity against Phakopsora pachyrhizi / soybean / leaf disc preventative (Asian soybean rust); format: in vivo; conditions: foliar, 200 ppm in the applied formulation, soybean leaf disks, compared to untreated control leaf disks, read-out: disease control
Summary of the method: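 Scored 12 to 14 days post-application as percent control relative to untreated check discs, rust spores were sprayed under the disc one day after compound treatment. Incubation: 20°C, 75% rh, first 24–36 h in darkness, then 12 h daily light; discs kept on water agar.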

[2] = test system: Glomerella lagenarium (Colletotrichum lagenarium); assay: Fungicidal activity against Glomerella lagenarium (Colletotrichum lagenarium) liquid culture / cucumber / preventative (anthracnose); format: cell-based; conditions: Colletotrichum orbiculare; 20 ppm in the applied formulation; liquid culture (PDB), growth inhibition measured photometrically after 3 to 4 days; compared to untreated control; read-out: disease control
Summary of the method: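 Percent activity against the untreated check was derived from photometric growth measurements made 2 to 7 days after conidia in potato dextrose broth were combined with compound at 20 ppm. Cultures were kept dark at 24 °C and 96% humidity.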

CC(=O)CC(C)C(=O)N(Cc1ccc(-c2noc(C(F)(F)F)n2)cc1)CC1CC1 (stereo not drawn) [Compound 1.209, N-(cyclopropylmethyl)-2-methyl-4-oxo-N-[[4-[5-(trifluoromethyl)-1,2,4-oxadiazol-3-yl]phenyl)methyl]-pentanamide]
≥ 80%: pest or weed control at 200 ppm [1] | pest or weed control at 200 ppm (Phakopsora Pachyrhizi) | inhibition of growth at 20 ppm [2]

CC(=O)N(CCO)Cc1ccc(-c2noc(C(F)(F)F)n2)cc1 [Compound 1.735, N-(2-hydroxyethyl)-N-[[4-[5-(trifluoromethyl)-1,2,4-oxadiazol-3-yl]phenyl]methyl]-acetamide]
≥ 80%: pest or weed control at 200 ppm [1] | pest or weed control at 200 ppm (Phakopsora Pachyrhizi) | inhibition of growth at 20 ppm [2]

CCCCCC(=O)N(Cc1ccc(-c2noc(C(F)(F)F)n2)cc1)C1CC1 [Compound 1.93, N-cyclopropyl-N-[[4-[5-(trifluoromethyl)-1,2,4-oxadiazol-3-yl]phenyl]methyl]-hexanamide]
≥ 80%: pest or weed control at 200 ppm [1] | pest or weed control at 200 ppm (Phakopsora Pachyrhizi) | inhibition of growth at 20 ppm [2]

CON(Cc1ccc(-c2noc(C(F)(F)F)n2)cc1)C(=O)NC1CCCCC1 [Compound 3.11, 3-cyclohexyl-1-methoxy-1-[[4-[5-(trifluoromethyl)-1,2,4-oxadiazol-3-yl]phenyl]methyl]urea]
≥ 80%: pest or weed control at 200 ppm [1] | pest or weed control at 200 ppm (Phakopsora Pachyrhizi) | inhibition of growth at 20 ppm [2]

CCCCON(Cc1ccc(-c2noc(C(F)(F)F)n2)cc1)C(=O)C1CCOC1 (stereo not drawn) [Compound 1.636, N-butoxy-N-[[4-[5-(trifluoromethyl)-1,2,4-oxadiazol-3-yl]phenyl]methyl]-tetrahydrofuran-3-carboxamide]
≥ 80%: pest or weed control at 200 ppm [1] | pest or weed control at 200 ppm (Phakopsora Pachyrhizi) | inhibition of growth at 20 ppm [2]

O=C(C1CC1(F)F)N(CCO)Cc1ccc(-c2noc(C(F)(F)F)n2)cc1 (stereo not drawn) [Compound 1.708, 2,2-difluoro-N-(2-hydroxyethyl)-N-[[4-[5-(trifluoromethyl)-1,2,4-oxadiazol-3-yl]phenyl]methyl]-cyclopropane-carboxamide]
≥ 80%: pest or weed control at 200 ppm [1] | pest or weed control at 200 ppm (Phakopsora Pachyrhizi) | inhibition of growth at 20 ppm [2]

CCON(Cc1ccc(-c2noc(C(F)(F)F)n2)cc1)C(=O)C1CCC1 [Compound 1.619, N-ethoxy-N-[[4-[5-(trifluoromethyl)-1,2,4-oxadiazol-3-yl]phenyl]methyl]-cyclobutane-carboxamide]
≥ 80%: pest or weed control at 200 ppm [1] | pest or weed control at 200 ppm (Phakopsora Pachyrhizi) | inhibition of growth at 20 ppm [2]

O=C(CC(F)(F)F)N(Cc1ccc(-c2noc(C(F)(F)F)n2)cc1)CC(F)(F)F [Compound 1.704, 3,3,3-trifluoro-N-(2,2,2-trifluoroethyl)-N-[[4-[5-(trifluoromethyl)-1,2,4-oxadiazol-3-yl]phenyl]methyl]-propanamide]
≥ 80%: pest or weed control at 200 ppm [1] | pest or weed control at 200 ppm (Phakopsora Pachyrhizi) | inhibition of growth at 20 ppm [2]

O=C(CC(F)(F)F)OCCN(Cc1ccc(-c2noc(C(F)(F)F)n2)cc1)C(=O)CC(F)(F)F [Compound 1.734, 2-[[4-[5-(trifluoromethyl)-1,2,4-oxadiazol-3-yl]phenyl]methyl-(3,3,3-trifluoropropanoyl)-amino]ethyl 3,3,3-trifluoropropanoate]
≥ 80%: pest or weed control at 200 ppm [1] | pest or weed control at 200 ppm (Phakopsora Pachyrhizi) | inhibition of growth at 20 ppm [2]

COCCCC(=O)N(Cc1ccc(-c2noc(C(F)(F)F)n2)cc1)CC1CC1 [Compound 1.238, N-(cyclopropylmethyl)-4-methoxy-N-[[4-[5-(trifluoromethyl)-1,2,4-oxadiazol-3-yl]phenyl]methyl]-butanamide]
≥ 80%: pest or weed control at 200 ppm [1] | pest or weed control at 200 ppm (Phakopsora Pachyrhizi) | inhibition of growth at 20 ppm [2]

C#CCOC(=O)NC(C(=O)N(Cc1ccc(-c2noc(C(F)(F)F)n2)cc1)C1CC1)C(C)C (stereo not drawn) [Compound 1.144, prop-2-ynyl N-[1-[cyclopropyl-[[4-[5-(trifluoromethyl)-1,2,4-oxadiazol-3-yl]phenyl]methyl]-carbamoyl]-2-methyl-propyl]carbamate]
≥ 80%: pest or weed control at 200 ppm [1] | pest or weed control at 200 ppm (Phakopsora Pachyrhizi) | inhibition of growth at 20 ppm [2]

N#CC1(C(=O)N(CCO)Cc2ccc(-c3noc(C(F)(F)F)n3)cc2)CC1 [Compound 1.729, 1-cyano-N-(2-hydroxyethyl)-N-[[4-[5-(trifluoromethyl)-1,2,4-oxadiazol-3-yl]phenyl]methyl]-cyclopropane-carboxamide]
≥ 80%: pest or weed control at 200 ppm [1] | pest or weed control at 200 ppm (Phakopsora Pachyrhizi) | inhibition of growth at 20 ppm [2]

O=C(C1CCCC1)N(Cc1ccc(-c2noc(C(F)(F)F)n2)cc1)CC1CC1 [Compound 1.212, N-(cyclopropylmethyl)-N-[[4-[5-(trifluoromethyl)-1,2,4-oxadiazol-3-yl]phenyl]methyl]-cyclopentane-carboxamide]
≥ 80%: pest or weed control at 200 ppm [1] | pest or weed control at 200 ppm (Phakopsora Pachyrhizi) | inhibition of growth at 20 ppm [2]

CCON(Cc1ccc(-c2noc(C(F)(F)F)n2)cc1)C(=O)C1(C#N)CC1 [Compound 1.628, 1-cyano-N-ethoxy-N-[[4-[5-(trifluoromethyl)-1,2,4-oxadiazol-3-yl]phenyl]methyl]-cyclopropane-carboxamide]
≥ 80%: pest or weed control at 200 ppm [1] | pest or weed control at 200 ppm (Phakopsora Pachyrhizi) | inhibition of growth at 20 ppm [2]

O=C(c1ccccc1Cl)N(CCO)Cc1ccc(-c2noc(C(F)(F)F)n2)cc1 [Compound 1.709, 2-chloro-N-(2-hydroxyethyl)-N-[[4-[5-(trifluoromethyl)-1,2,4-oxadiazol-3-yl]phenyl]methyl]-benzamide]
≥ 80%: pest or weed control at 200 ppm [1] | pest or weed control at 200 ppm (Phakopsora Pachyrhizi) | inhibition of growth at 20 ppm [2]

O=C(C1CCC1)N(Cc1ccc(-c2noc(C(F)(F)F)n2)cc1)CC1CC1 [Compound 1.221, N-(cyclopropylmethyl)-N-[[4-[5-(trifluoromethyl)-1,2,4-oxadiazol-3-yl]phenyl]methyl]-cyctobutane-carboxamide]
≥ 80%: pest or weed control at 200 ppm [1] | pest or weed control at 200 ppm (Phakopsora Pachyrhizi) | inhibition of growth at 20 ppm [2]

CC=CCC(=O)N(Cc1ccc(-c2noc(C(F)(F)F)n2)cc1)CC1CC1 [Compound 1.222, N-(cyclopropylmethyl)-N-[[4-[5-(trifluoromethyl)-1,2,4-oxadiazol-3-yl]phenyl]methyl]-pent-3-enamide]
≥ 80%: pest or weed control at 200 ppm [1] | pest or weed control at 200 ppm (Phakopsora Pachyrhizi) | inhibition of growth at 20 ppm [2]

C=CCN(Cc1ccc(-c2noc(C(F)(F)F)n2)cc1)C(=O)C1CCCC1 [Compound 1.475, N-allyl-N-[[4-[5-(trifluoromethyl)-1,2,4-oxadiazol-3-yl]phenyl]methyl]-cyclopentane-carboxamide]
≥ 80%: pest or weed control at 200 ppm [1] | pest or weed control at 200 ppm (Phakopsora Pachyrhizi) | inhibition of growth at 20 ppm [2]

CC(C)CC(=O)N(Cc1ccc(-c2noc(C(F)(F)F)n2)cc1)CC1CC1 [Compound 1.218, N-(cyclopropylmethyl)-3-methyl-N-[[4-[5-(trifluoromethyl)-1,2,4-oxadiazol-3-yl]phenyl]methyl]-butanamide]
≥ 80%: pest or weed control at 200 ppm [1] | pest or weed control at 200 ppm (Phakopsora Pachyrhizi) | inhibition of growth at 20 ppm [2]

O=C(C1CCCCC1)N(Cc1ccc(-c2noc(C(F)(F)F)n2)cc1)C1CC1 [Compound 1.90, N-cyclopropyl-N-[[4-[5-(trifluoromethyl)-1,2,4-oxadiazol-3-yl]phenyl]methyl]-cyclohexane-carboxamide]
≥ 80%: pest or weed control at 200 ppm [1] | pest or weed control at 200 ppm (Phakopsora Pachyrhizi) | inhibition of growth at 20 ppm [2]
